Results: the supplement of paper PMC10307832

Assays:
Test in all cases: relative viability (nuclei count vs DMSO), 5 days (fraction); higher = more cells survive
Venetoclax + Bortezomib = compound: CC1(C)CCC(CN2CCN(c3ccc(C(=O)NS(=O)(=O)c4ccc(NCC5CCOCC5)c([N+](=O)[O-])c4)c(Oc4cnc5[nH]ccc5c4)c3)CC2)=C(c2ccc(Cl)cc2)C1 [Venetoclax] + CC(C)C[C@H](NC(=O)[C@H](Cc1ccccc1)NC(=O)c1cnccn1)B(O)O [Bortezomib] (partner 0.002 µM)
Procedure, shortened: (§1)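 Cells from lung cancer lines were seeded into 1536-well plates and, one day later, dosed by pin tool. Treatments were either a single drug or a fixed dose of an anchor drug with five library-drug doses (not always all listed) in √10 steps. After 5 days, nuclei were stained in a one-step fixation (final 0.05% Triton X-100, 1% formaldehyde, 1 ug/ml Hoechst) and counted on 4× images, and relative viability is the treated-to-vehicle nuclei ratio, as the median of duplicate plates.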

[1] = compound: Cn1cnc2c(F)c(Nc3ccc(Br)cc3Cl)c(C(=O)NOCCO)cc21 [Selumetinib] + CC(=O)c1c(C)c2cnc(Nc3ccc(N4CCNCC4)cn3)nc2n(C2CCCC2)c1=O [Palbociclib] (partner 0.5 µM)
Procedure, shortened: as §1

Venetoclax + Linsitinib = compound: CC1(C)CCC(CN2CCN(c3ccc(C(=O)NS(=O)(=O)c4ccc(NCC5CCOCC5)c([N+](=O)[O-])c4)c(Oc4cnc5[nH]ccc5c4)c3)CC2)=C(c2ccc(Cl)cc2)C1 [Venetoclax] + C[C@]1(O)C[C@@H](c2nc(-c3ccc4ccc(-c5ccccc5)nc4c3)c3c(N)nccn32)C1 [Linsitinib] (partner 1 µM)
Procedure, shortened: as §1

Selumetinib + Dasatinib = compound: Cn1cnc2c(F)c(Nc3ccc(Br)cc3Cl)c(C(=O)NOCCO)cc21 [Selumetinib] + Cc1nc(Nc2ncc(C(=O)Nc3c(C)cccc3Cl)s2)cc(N2CCN(CCO)CC2)n1 [Dasatinib] (partner 0.075 µM)
Procedure, shortened: as §1

Cell Line | relative viability (Venetoclax + Bortezomib; first compound 0.01 µM) | relative viability (Venetoclax + Bortezomib; first compound 0.03162 µM) | relative viability (Venetoclax + Bortezomib; first compound 0.1 µM) | relative viability (Venetoclax + Bortezomib; first compound 0.3162 µM) | relative viability (Venetoclax + Bortezomib; first compound 1 µM) | relative viability ([1]; first compound 0.02 µM) | relative viability ([1]; first compound 0.06325 µM) | relative viability ([1]; first compound 0.2 µM) | relative viability ([1]; first compound 0.6325 µM) | relative viability (Venetoclax + Linsitinib; first compound 0.01 µM) | relative viability (Venetoclax + Linsitinib; first compound 0.03162 µM) | relative viability (Venetoclax + Linsitinib; first compound 0.1 µM) | relative viability (Venetoclax + Linsitinib; first compound 0.3162 µM) | relative viability (Venetoclax + Linsitinib; first compound 1 µM) | relative viability (Selumetinib + Dasatinib; first compound 0.02 µM) | relative viability (Selumetinib + Dasatinib; first compound 0.06325 µM) | relative viability (Selumetinib + Dasatinib; first compound 0.2 µM) | relative viability (Selumetinib + Dasatinib; first compound 0.6325 µM)
HCC-366 | 0.854 | 1.05 | 1.01 | 0.994 | 0.984 | 0.3 | 0.31 | 0.256 | 0.143 | 0.659 | 0.657 | 0.605 | 0.779 | 0.549 | 0.501 | 0.566 | 0.456 | 0.367
HCC-827 | 1.04 | 1.06 | 1.08 | 1.11 | 1.01 | 0.497 | 0.469 | 0.465 | 0.401 | 0.997 | 0.973 | 1 | 0.978 | 0.87 | 0.24 | 0.331 | 0.26 | 0.294
HOP-62 | 0.886 | 1.17 | 0.746 | 0.665 | 0.625 | 0.469 | 0.489 | 0.458 | 0.37 | 1.04 | 0.968 | 1.15 | 0.938 | 0.948 | 0.583 | 0.526 | 0.387 | 0.249
IA-LM | 0.745 | 0.701 | 0.959 | 0.698 | 0.823 | – | – | – | – | 0.51 | 0.605 | 0.71 | 0.418 | 0.403 | – | – | – | –
LC-2-ad | 0.834 | 1.02 | 0.968 | 0.907 | 0.94 | 0.504 | 0.547 | 0.492 | 0.453 | 0.807 | 0.904 | 0.785 | 0.848 | 0.798 | 0.724 | 0.501 | 0.427 | 0.559
LCLC-97TM1 | – | 0.99 | 0.609 | 1.02 | 0.403 | 0.188 | 0.213 | 0.163 | 0.19 | – | 0.197 | 0.158 | 0.182 | 0.198 | 0.866 | 0.674 | 0.543 | 0.272
LCLC-103H | 1.02 | 1.04 | 1.16 | 1.09 | 1.1 | 0.467 | 0.498 | 0.469 | 0.439 | 1.1 | 1.24 | 1.16 | 1.13 | 0.989 | 0.524 | 0.505 | 0.568 | 0.491
LK-2 | – | – | – | – | – | 0.772 | 0.851 | 0.706 | 0.802 | 0.727 | 0.621 | 0.516 | 0.548 | 0.551 | 0.281 | 0.31 | 0.308 | 0.389
LOU-NH91 | 0.487 | 0.477 | 0.558 | 0.473 | 0.456 | 0.583 | 0.611 | 0.546 | 0.535 | 0.887 | 0.986 | 0.882 | 0.975 | 0.895 | 0.547 | 0.504 | 0.495 | 0.534
NCI-H358 | – | – | – | – | – | 0.123 | 0.125 | 0.127 | 0.125 | 0.754 | 0.812 | 0.624 | 0.679 | 0.702 | 0.136 | 0.111 | 0.118 | 0.129
NCI-H522 | – | – | – | – | – | 0.98 | 0.92 | 0.755 | 0.793 | – | – | – | – | – | 1.96 | 0.849 | 0.861 | 0.96
NCI-H596 | 1.01 | 0.857 | 0.979 | 1.14 | 1.14 | – | – | – | – | 1.03 | 1.09 | 1.1 | 1.13 | 1.11 | 0.625 | 0.546 | 0.565 | 0.483
NCI-H1299 | 1.05 | 1.02 | 0.979 | 0.999 | 0.98 | – | – | – | – | 0.987 | 1.02 | 1.06 | 0.926 | 0.936 | – | – | – | –
NCI-H1395 | – | – | – | – | – | 0.561 | 0.558 | 0.574 | 0.54 | 0.951 | 0.996 | 1.04 | 1.25 | 1.11 | 0.408 | 0.415 | 0.432 | 0.445
NCI-H1563 | 0.792 | 0.896 | 0.827 | 0.944 | 0.78 | – | – | – | – | 1.16 | 1.29 | 1.28 | 1.4 | 1.24 | 0.514 | 0.451 | 0.498 | 0.528
NCI-H1623 | – | – | – | – | – | – | – | – | – | – | – | – | – | – | 0.465 | 0.454 | 0.461 | 0.505
NCI-H1648 | – | – | – | – | – | – | 0.307 | 0.237 | 0.296 | – | – | – | – | – | – | – | – | –
NCI-H1650 | 0.217 | 0.218 | – | 0.205 | 0.184 | 0.312 | 0.26 | 0.357 | 0.27 | – | – | – | – | – | 0.333 | 0.298 | 0.323 | 0.337
NCI-H1703 | 0.306 | 0.313 | 0.21 | 0.397 | 0.374 | – | – | – | – | 0.549 | 0.652 | 0.81 | 0.756 | 0.755 | – | – | – | –
NCI-H1793 | – | – | – | – | – | 0.267 | 0.293 | 0.249 | 0.199 | 0.905 | 1.04 | 0.692 | 0.818 | 0.778 | 0.393 | 0.375 | 0.296 | 0.294
NCI-H1944 | – | – | – | – | – | 0.303 | 0.312 | 0.253 | 0.231 | 1.4 | 1.28 | 1.15 | 1.16 | 1.23 | 0.186 | 0.186 | 0.161 | 0.167
NCI-H2170 | – | – | – | – | – | 0.406 | 0.43 | 0.414 | 0.414 | – | – | – | – | – | 0.533 | 0.515 | 0.48 | 0.412
NCI-H2342 | – | – | – | – | – | 0.476 | 0.53 | 0.498 | 0.482 | – | – | – | – | – | 0.362 | 0.32 | 0.37 | 0.293
SK-MES-1 | – | – | – | – | – | 0.304 | 0.322 | 0.315 | 0.264 | 0.995 | 1.09 | 1.07 | 1.06 | 0.963 | 0.284 | 0.271 | 0.235 | 0.226
SW 900 | – | – | – | – | – | 0.597 | 0.461 | 0.446 | 0.495 | – | – | – | – | – | 0.709 | 0.491 | 0.541 | 0.572
